From patent publication US12566184B2, “Cell-free biosensors to detect creatinine, creatine, and sarcosine” (Georgia Tech Research Corporation, priority 2021, dated 2026)

Test system: colored probe product
Experiment: enzymatic creatinine assay with limited chemical probe (Amplex Red): stabilization of probe signal by antioxidants
Format: biochemical
Conditions: antioxidants added at different concentrations; chemical probe at low concentration
Description: The existing assay is a purely enzymatic approach that translates the concentration of creatinine into a colorimetric change of varying intensity. It contains two enzymes. The first enzyme, creatininase, catalyzes the conversion of creatinine to creatine. The second enzyme, creatinase, catalyzes creatine to sarcosine. This bioconversion aspect of the assay can be maintained in both of the embodiments. In the existing assay, the sarcosine is then oxidized by sarcosine oxidase, generating hydrogen peroxide in the process. The fluorogenic peroxidase substrate Amplex Red, hereafter referred to as the “probe”, interacts with the generated hydrogen peroxide in the presence of horseradish peroxidase to produce the red-fluorescent product resorufin (see Yamkamon et al. Simultaneous determination of sarcosine and its related metabolites by gas chromatography-tandem mass spectrometry for prostate cancer diagnosis, EXCLI Journal, 2018). Resorufin accumulation leads to a visible color change with a linear response over physiological serum creatinine concentrations. However, there is significant day-to-day variability of unknown origin that affects the amplitude of the output, thus requiring (per manufacturer's instructions) a calibration curve to be run with every sample or batch of samples and complicating field deployment.
In certain embodiments of the disclosed invention, the existing assay can be taken in its entirety and titrated down the amount of probe (fluorogenic peroxidase substrate, Amplex Red) so as to produce a sample-specific calibration curve. The probe concentration that corresponds with specific creatinine concentrations in calibration tests can be first identified using defined chemical mixtures and then implemented in a serum sample matrix to validate the sample-specific calibration curve. […] This method yields a set of reactions to which patient sample can be added, and regardless of the sample levels of creatinine, the calibration spots will all correspond to defined levels of creatinine. The reaction with excess probe can then be visually compared to the calibration spots to determine the creatinine level. In particular, a shift from colorless to red may be useful for a presence-absence or binary diagnostic test. For more accurate monitoring of intensity of color, a plate reader (e.g., spectrophotometer or fluorescence reader) can be used.
Furthermore, in order to reduce the patient-to-patient variability in readouts, also known as matrix effects, where the molecule being measured may appear to be at a different concentration only due to interferences from other constituents of the solution, the inventors identified that the appropriate reagent to limit was not the enzymes in the chemical assay, but rather the chemical probe. However, when the concentration of the chemical probe was reduced to a low level to enable the calibration approach, a side reaction happened where probe that has been transformed from colorless into colored form undergoes a second reaction that brings it back to a colorless form. This made the signal “decay” and thus would lead to an underreporting of the target molecule's concentration.

Compound	effect on decay of probe signal (transformation of colored probe product into colorless side product)
Cc1c(C)c2c(c(C)c1O)CCC(C)(C(=O)O)O2 (racemic) [(±)-6-Hydroxy-2,5,7,8-tetramethylchromane-2-carboxylic acid]	preventing the decay of probe signal
N[C@@H](CCC(=O)N[C@@H](CS)C(=O)NCC(=O)O)C(=O)O [L-glutathione (reduced)]	preventing the decay of probe signal
O=C1O[C@H]([C@@H](O)CO)C(O)=C1O [Vitamin C]	preventing the decay of probe signal
O=C(O)CC(O)(CC(=O)O)C(=O)O [citric acid]	preventing the decay of probe signal
O=c1[nH]c(=O)c2[nH]c(=O)[nH]c2[nH]1 [uric acid]	preventing the decay of probe signal
Vitamin E	preventing the decay of probe signal
